Assay results from patent publication US20240018110A1, “RADIOLABELED COMPOUNDS TARGETING THE PROSTATE-SPECIFIC MEMBRANE ANTIGEN” (THE UNIVERSITY OF BRITISH COLUMBIA, priority 2020, published 2024).

What follows are compounds tested against PSMA (Homo sapiens, UniProt Q04609) (assay: In vitro competitive binding assay).
PSMA, sequence (Q04609 whole entry): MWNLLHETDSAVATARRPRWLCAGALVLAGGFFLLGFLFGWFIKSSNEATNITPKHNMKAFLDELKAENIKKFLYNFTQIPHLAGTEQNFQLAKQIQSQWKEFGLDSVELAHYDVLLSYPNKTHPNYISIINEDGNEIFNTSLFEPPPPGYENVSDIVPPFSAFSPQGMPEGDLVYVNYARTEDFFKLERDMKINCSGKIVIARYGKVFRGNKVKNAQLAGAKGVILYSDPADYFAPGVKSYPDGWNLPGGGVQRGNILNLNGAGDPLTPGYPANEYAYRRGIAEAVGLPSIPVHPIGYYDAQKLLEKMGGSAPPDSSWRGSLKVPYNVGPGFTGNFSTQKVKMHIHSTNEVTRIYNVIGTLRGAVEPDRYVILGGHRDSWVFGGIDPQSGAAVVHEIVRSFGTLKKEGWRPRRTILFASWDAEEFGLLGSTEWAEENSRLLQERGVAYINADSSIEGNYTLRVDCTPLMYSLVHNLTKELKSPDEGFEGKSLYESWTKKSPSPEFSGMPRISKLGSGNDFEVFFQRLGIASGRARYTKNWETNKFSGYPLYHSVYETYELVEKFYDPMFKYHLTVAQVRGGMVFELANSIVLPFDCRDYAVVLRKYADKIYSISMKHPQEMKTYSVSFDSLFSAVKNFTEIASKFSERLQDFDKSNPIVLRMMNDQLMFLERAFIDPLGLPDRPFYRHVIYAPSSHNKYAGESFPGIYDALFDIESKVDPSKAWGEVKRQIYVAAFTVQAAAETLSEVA

| Compound | Ki [nM] |
| --- | --- |
| O=C(O)CCC[C@H](OC(=O)N[C@@H](CCCCNC(=O)[C@H](Cc1c2ccccc2cc2ccccc12)NC(=O)[C@H]1CC[C@H](CNC(=O)CCc2ccc(O)c(CN(CCN(CC(=O)O)Cc3cc(CCC(=O)O)ccc3O)CC(=O)O)c2)CC1)C(=O)O)C(=O)O [AR-2-113-1, HBED-CC-PSMA-Aad-carbamate] | 3.44 |
| O=C(O)CCC[C@@H](OC(=O)N[C@@H](CCCCNC(=O)[C@H](Cc1c2ccccc2cc2ccccc12)NC(=O)[C@H]1CC[C@H](CNC(=O)CCc2ccc(O)c(CN(CCN(CC(=O)O)Cc3cc(CCC(=O)O)ccc3O)CC(=O)O)c2)CC1)C(=O)O)C(=O)O [AR-2-113-2, HBED-CC-PSMA-Aad-carbamate] | 56.3 |
| O=C(O)CC[C@H](NC(=O)N[C@@H](C[C@H]1C[C@@H]1CNC(=O)[C@H](Cc1c2ccccc2cc2ccccc12)NC(=O)[C@H]1CC[C@H](CNC(=O)CN2CCN(CC(=O)O)CCN(CC(=O)O)CCN(CC(=O)O)CC2)CC1)C(=O)O)C(=O)O [PD-6-49] | 11.9 |

More lines, now with the values ahead:

| Ki [nM] | Compound |
| --- | --- |
| 17 | O=C(O)CCC[C@H](NC(=O)N[C@@H](CCCCCNC(=O)[C@H](Cc1c2ccccc2cc2ccccc12)NC(=O)C1CCC(CNC(=O)CN2CCN(CC(=O)O)CCN(CC(=O)O)CCN(CC(=O)O)CC2)CC1)C(=O)O)C(=O)O (some centres unmarked) [CCZ02010] |
| 1.23 | O=C(O)CCC[C@H](NC(=O)N[C@@H](COCCNC(=O)[C@H](Cc1c2ccccc2cc2ccccc12)NC(=O)C1CCC(CNC(=O)CN2CCN(CC(=O)O)CCN(CC(=O)O)CCN(CC(=O)O)CC2)CC1)C(=O)O)C(=O)O (some centres unmarked) [CCZ02011] |
| 1.61 ± 0.04 | O=C(O)CCC[C@H](NC(=O)N[C@@H](CCCONC(=O)[C@H](Cc1c2ccccc2cc2ccccc12)NC(=O)C1CCC(CNC(=O)CN2CCN(CC(=O)O)CCN(CC(=O)O)CCN(CC(=O)O)CC2)CC1)C(=O)O)C(=O)O (some centres unmarked) [CCZ02018] |
| 3.2 | O=C(O)CCC[C@H](NC(=O)N[C@@H](CSC[C@H](NC(=O)[C@H](Cc1c2ccccc2cc2ccccc12)NC(=O)C1CCC(CNC(=O)CN2CCN(CC(=O)O)CCN(CC(=O)O)CCN(CC(=O)O)CC2)CC1)C(=O)O)C(=O)O)C(=O)O (some centres unmarked) [CCZ02032] |
| 461 | O=C(O)CCC[C@H](NC(=O)N[C@@H](CSC[C@@H](NC(=O)[C@H](Cc1c2ccccc2cc2ccccc12)NC(=O)C1CCC(CNC(=O)CN2CCN(CC(=O)O)CCN(CC(=O)O)CCN(CC(=O)O)CC2)CC1)C(=O)O)C(=O)O)C(=O)O (some centres unmarked) [CCZ02033] |
